We go through one molecule from publication PMC4565196 (Biochimica et biophysica acta, 2014).

The subject of test [1] is A2AR single and double Cys-to-Ala variants. The experiment in a line: Fluorescent-ligand binding to the A2AR variants. On the set-up: species or system human. The following applies: HEK-293 cells, untagged A2AR constructs, 70 nM FITC-APEC, 1 h at 37 °C.
The target in test [2] is A2a–adenosine receptors. The note with it: high affinity fluorescent agonist; cited from earlier work.

pKd: −log10 of the molar value.

One may read the pKd as the negative decadic logarithm of the Kd, by convention in mol/L. For `CCNC(=O)[C@H]1O[C@@H](n2cnc3c(N)nc(NCCc4ccc(CCC(=O)NCCNC(=S)Nc5ccc6c(c5)C(=O)OC6(c5ccc(O)cc5)c5ccc(O)cc5)cc4)nc32)[C@H](O)[C@@H]1O` [FITC-APEC, 2-[2-[4-[2-[2-[1,3-Dihydro-1,1-bis (4-hydroxyphenyl)-3-oxo-5-isobenzofuranthioureidyl]ethylaminocarbonyl]ethyl]phenyl]ethylamino]-5N′-ethylcarboxamidoadenosine], in test [1], the “fluorescent ligand binding at the cell surface” value is reported as “capable of binding”. For the same molecule, the pKd in test [2] was 7.24.
